Laboratory results from PubChem BioAssay (NCI).
Where “and” joins values, the source holds several entries; their conditions need not be identical. Equal entries are not always repeated.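 Values below derive from 48-hour exposures of cells grown in 96-well plates, with endpoints linearly interpolated between the two concentrations bracketing the appropriate inhibition level. GI50 = concentration required for 50% inhibition of growth. Definition used: TGI = concentration required for complete inhibition of growth.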

Tests used:
Test in all cases: NCI anticancer screen, dose series, 48 h
[1] = test system: SNB-75 CNS
[2] = test system: CAKI-1 renal
[3] = test system: NCI-H522 lung
[4] = test system: SK-MEL-28 melanoma
[5] = test system: OVCAR-5 ovarian
[6] = test system: HCC-2998 colon
[7] = test system: COLO 205 colon
[8] = test system: KM12 colon
[9] = test system: SK-MEL-5 melanoma
[10] = test system: HS 578T breast

| SMILES | TGI [1] | TGI [2] | TGI [3] | TGI [4] | TGI [5] | TGI [6] | TGI [7] | TGI [8] | TGI [9] | GI50 [2] | GI50 [4] | GI50 [5] | GI50 [7] | GI50 [9] | TGI [10] | GI50 [1] | GI50 [3] | GI50 [8] | GI50 [10] | GI50 [6] |
| --- | --- | --- | --- | --- | --- | --- | --- | --- | --- | --- | --- | --- | --- | --- | --- | --- | --- | --- | --- | --- |
| O=C(O/N=C1/CCC/C1=C\c1ccccc1)c1ccc([N+](=O)[O-])cc1 | 91.3 µM | > 100 µM | > 100 µM | > 100 µM | > 100 µM | 25.7 µM | > 100 µM | > 100 µM | > 100 µM |  |  |  |  |  |  |  |  |  |  |  |
| Cc1cc(C)nc(NS(=O)(=O)c2ccc(NC(=O)c3cccc4c(=O)c5ccccc5[nH]c34)cc2)n1 | 50 µM | > 100 µM | 27.6 µM | 36 µM |  | 31.7 µM | 34.5 µM | 30.7 µM | 24 µM |  |  |  |  |  |  |  |  |  |  |  |
| O=C1CC[C@H]2CNC(=O)C[C@H]2C1 | > 100 µM | > 100 µM | > 100 µM | > 100 µM |  | > 100 µM | > 100 µM | > 100 µM | > 100 µM |  |  |  |  |  |  |  |  |  |  |  |
| CC1=C[C@@H]2Cc3occc3C(C)(C)[C@@H]2CC1 | 33.5 µM | 52.2 µM | 28.6 µM | 49.5 µM | 50.3 µM | 36.2 µM | 33.7 µM | 33.4 µM | 33.1 µM |  |  |  |  |  |  |  |  |  |  |  |
| CCC1CCC2CCCC(C)N12 (stereo not drawn) | > 100 µM | > 100 µM | > 100 µM | > 100 µM |  | > 100 µM | > 100 µM | > 100 µM |  |  |  |  |  |  |  |  |  |  |  |  |
| O=C1Oc2cc3c(c4cccc1c24)OCN(c1ccc(Cl)cc1)C3 | > 100 µM | > 100 µM | 30.8 µM | > 93.6 µM | > 77.3 µM | > 100 µM | > 100 µM | > 63.6 µM | > 100 µM |  |  |  |  |  |  |  |  |  |  |  |
| Cc1cccc2c3ccc4c(c3n(C)c12)C(=O)C=CC4=O | > 100 µM | > 100 µM | > 100 µM | > 100 µM |  | > 100 µM | > 100 µM | > 100 µM |  |  |  |  |  |  |  |  |  |  |  |  |
| CN(C)CCNC(=O)c1cccc2nc3c(Cl)cccc3nc12 | 32.2 µM | > 70.8 µM | > 100 µM | 15.9 µM | 16.7 µM | 43.1 µM | > 37.3 µM | 30.4 µM | > 42.3 µM |  |  |  |  |  |  |  |  |  |  |  |
| O=C(O)CCCc1ccc(N(CCCl)CCCl)cc1 |  | 28.1 µM and 146 µM and 247 µM | 13.1 µM and 100 µM and 99.4 µM | 42.1 µM and 267 µM | 45.4 µM and 274 µM and 374 µM |  | 45.9 µM and 271 µM and 333 µM | 57.8 µM and 351 µM and 485 µM | 39.5 µM and 210 µM and 225 µM | 5.86 µM | 21.5 µM | 20.6 µM and 173 µM | 22.6 µM and 201 µM | 20.3 µM and 110 µM | 570 µM and 312 µM |  |  |  |  |  |
| CCOC(=O)c1cc(-c2ccc([N+](=O)[O-])cc2)n(-c2ccc(C(=O)O)c(O)c2)c1C | 22.1 µM | 30.1 µM | 23.9 µM | 14.4 µM | 35.3 µM |  | 3.84 µM | 11.7 µM | 3.43 µM | 11.6 µM | 3.81 µM | 17.3 µM | 1.6 µM | 1.64 µM | 17 µM | 7.65 µM | 6.48 µM | 3.55 µM | 3.64 µM |  |
| O=C1NC(=O)C2C(=O)NC(=O)C1C2(c1ccccc1)c1ccc(Cl)cc1 (stereo not drawn) | > 100 µM | > 100 µM | > 100 µM | > 100 µM | > 100 µM | > 100 µM | > 100 µM | > 100 µM | > 100 µM |  |  |  |  |  |  |  |  |  |  |  |
| N#Cc1nc(-c2ccc(F)cc2)oc1S(=O)(=O)N1CCOCC1 | 22 µM | 5.62 µM | 3.13 µM | 6.25 µM | 9.38 µM | 25.5 µM |  | 26.3 µM | 18.8 µM | 2.12 µM | 2.41 µM | 2.8 µM |  | 6.33 µM | 45.4 µM | 10.2 µM | 0.675 µM | 12 µM | 15.1 µM | 11.9 µM |
| C[Si](C)(C)c1ccc(CC2(Cc3ccc([Si](C)(C)C)cc3)CCNC2)cc1 | 7.67 µM | 5.29 µM | 3.28 µM | 5.05 µM | 15.4 µM | 4.43 µM | 3.19 µM | 3.62 µM | 3.35 µM |  |  |  |  |  |  |  |  |  |  |  |
| CCCNC(=O)OCc1c(COC(=O)NCCC)c(-c2ccc(Cl)c(Cl)c2)n2c1CCC2 |  | 8.2 µM | 4.32 µM |  | 20.4 µM |  | 13.2 µM | 28.5 µM | 19.5 µM |  |  |  |  |  | 26.2 µM |  |  |  |  |  |
| COc1ccc(/C=C(/C(=O)O)c2cc(OC)c(OC)c(OC)c2)cc1 | 79 µM | > 100 µM | 36.6 µM | > 100 µM | > 100 µM | > 100 µM | > 100 µM | > 100 µM | > 100 µM |  |  |  |  |  |  |  |  |  |  |  |
| CN1CCCNCCN(CCc2ccccn2)CCCN(C)CC1 | > 100 µM | > 100 µM | > 100 µM | > 100 µM | > 100 µM | > 100 µM | > 62.8 µM | > 100 µM | > 100 µM |  |  |  |  |  |  |  |  |  |  |  |
| S=C1NCCN1C1=Nc2ccccc2CO1 | > 100 µM | > 100 µM | > 100 µM | > 100 µM | > 100 µM | > 100 µM | > 100 µM | > 100 µM | 99.4 µM | > 100 µM | > 100 µM | > 100 µM | > 100 µM | 41.7 µM |  | 22.5 µM | > 100 µM | > 100 µM |  | > 100 µM |
| Cc1cccc(C(C)(C)C)c1NC(=O)C(=O)Cc1nc2ccccc2s1 | > 100 µM | > 100 µM | > 100 µM | > 100 µM | > 100 µM | > 100 µM | > 100 µM | > 100 µM | > 100 µM |  |  |  |  |  |  |  |  |  |  |  |
| c1ccc(-c2nnc(-c3nn(-c4ccccc4)c4nc5ccccc5nc34)o2)cc1 | > 100 µM | > 100 µM | > 100 µM | > 100 µM | > 100 µM | > 100 µM | > 100 µM | > 100 µM |  |  |  |  |  |  |  |  |  |  |  |  |
| CN(C)c1ccc2c(c1)oc(=O)c1ccccc12 | 31.9 µM | 26.1 µM | 20.9 µM | 34.3 µM | 30.2 µM | 28.8 µM | 24.7 µM |  | 22.8 µM |  |  |  |  |  | 97.2 µM |  |  |  |  |  |
| O=C1c2ccccc2-c2c1c1cc3c(cc1c(=O)n2CCCCl)OCO3 | > 100 µM | 82.4 µM | > 100 µM | > 100 µM |  | > 100 µM |  | > 100 µM | > 100 µM | 20.4 µM | 19.2 µM |  |  | 33.5 µM | > 100 µM | 0.58 µM | 16.8 µM | 24.1 µM | > 100 µM | 24.4 µM |
